Measurements published in ChEMBL document CHEMBL1201862, “PubChem BioAssay data set” (2004).
The source made the active and inactive calls.

Legend:
[1] = Vero cell cytotoxicity, dose response, cytotoxicity control for Vif-APOBEC3G degradation inhibitor project, Vero cells (AID 1117358); assay type: functional; settings: Human immunodeficiency virus 1, Vero
cells = settings: HEK293;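 note: cells exposed to compound for 48 hours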
Paired box protein Pax-8 = Paired box protein Pax-8 (Homo sapiens, UniProt Q06710); experiment: inhibitors of PAX8-driven TPO luciferase reporter, dose response, RMG-I cells, cherry-pick (AID 687027); assay type: functional, cell-based;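 note: luciferase reporter driven by Pax8 target thyroperoxidase promoter measured by SteadyGlo luminescence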
[2] = IOSE-T80 ovarian epithelial cell cytotoxicity, dose response, cytotoxicity control for PAX8 inhibitor project, plate reader, dry powder samples (AID 743045); assay type: functional, cell-based
[3] = cytotoxicity in COV434 cells, dose response, cytotoxicity control for PAX8 inhibitor project, cell-based, plate reader, dry powder, SA7 (AID 743145); assay type: functional
[4] = cytotoxicity in OV-90 ovarian cancer cells, dose response, PAX8 inhibitor project, cell-based, plate reader, dry powder, SA8 (AID 743149); assay type: functional
[5] = cytotoxicity dependent on PAX8, dose response, cell-based, plate reader, dry powder (AID 743049); assay type: functional
HEK293 = experiment: HEK293T cell cytotoxicity, dose response, cytotoxicity control, ATP luminescence, cherry-pick samples (AID 687005); assay type: functional, cell-based; settings: Homo sapiens;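 note: cells exposed to compound for 48 hours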
[6] = HEK293 Cytotoxicity Assay Measured in Cell-Based System Using Plate Reader - 7071-01_Inhibitor_Dose_CherryPick_Activity_Set2.; assay type: functional
Saccharomyces cerevisiae = experiment: NALP1 inhibitor project selectivity study, Caspase-1/ASC signal blockade IC50 in S. cerevisiae (AID 488863); assay type: functional, organism-based
[7] = molecular target: NACHT, LRR and PYD domains-containing protein 1 (Homo sapiens, UniProt Q9C000); experiment: NALP1 inhibitors in yeast, dose response, luminescent (AID 488860); assay type: functional
[8] = inhibitors of Vif binding to APOBEC3G peptide, primary screen, biochemical, TR-FRET, GST-Vif 1-94, biotin-A3G peptide, dose response retest (AID 1117319); assay type: functional;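 note: TR-FRET signal of purified GST-Vif binding a biotinylated A3G peptide; inhibitors lower the FRET signal by blocking Vif and A3G binding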
[9] = molecular target: 1-phosphatidylinositol 4,5-bisphosphate phosphodiesterase gamma-1 (Homo sapiens, UniProt P19174); experiment: Counterscreen for inhibitors of phospholipase C isozymes (PLC-B3): Fluorescence-based biochemical high throughput dose response assay to identify inhibitors of phospholipase C isozymes (PLC-gamma1).
[10] = molecular target: 1-phosphatidylinositol 4,5-bisphosphate phosphodiesterase beta-3 (Homo sapiens, UniProt Q01970); experiment: Fluorescence-based biochemical high throughput dose response assay to identify inhibitors of phospholipase C isozymes (PLC-B3).
Kallikrein-7 = Kallikrein-7 (Homo sapiens, UniProt P49862); experiment: Fluorescence Intensity-based biochemical primary high throughput dose response assay to identify activators of kallikrein-7 (K7) zymogen.
[11] = EDANS-DABCYL fluorescence interference, concentration series, dose response, artefact control for kallikrein-7 zymogen activator project, biochemical, fluorescence intensity, triplicate (AID 720493)
[12] = molecular target: T1, Heat shock protein HSP 90-alpha (Homo sapiens, UniProt P07900); experiment: Luminescence-based dose response biochemical high throughput screening assay for inhibitors of the Heat Shock Protein 90 (HSP90). [Related pubchem assays: 1831 (Summary AID.), 1846 (Confirmation screen.), 1789 (Primary screen.)]
Vero [13] = experiment: cells; assay type: functional; settings: Chlorocebus sabaeus
[14] = Late stage assay provider results from the probe development effort to identify selective inhibitors of heat shock protein 90 (HSP90): Absorbance-based cell proliferation assay in SKBR3 cells.; assay type: functional; settings: SK-BR-3
[15] = Late stage assay provider results from the probe development effort to identify selective inhibitors of heat shock protein 90 (HSP90): Absorbance-based cell proliferation assay in MCF7 cells.; assay type: functional
[16] = molecular target: Glucose-6-phosphate 1-dehydrogenase (Homo sapiens, UniProt P11413); experiment: human G6PD enzyme inhibitors, dose response, selectivity assay for P. falciparum G6PD inhibitor project, biochemical, fluorescence (AID 504792); assay type: functional
Nonstructural protein 1 = Nonstructural protein 1 (Influenza A virus, UniProt Q194T2); assay type: functional, Influenza A virus (A/California/07/2009(H1N1))
CHO = experiment: cytotoxicity in TLR9-MyD88 CHO cells, dose response, cytotoxicity control for TLR9-MyD88 binding inhibitor project, cell-based, luminescence (AID 588339); assay type: functional, hamster; settings: Cricetulus griseus;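 note: CHO cells stably coexpressing TLR9 and MyD88 fusions from primary screen; compound exposure lasted 48 hours before viability readout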
[17] = molecular target: T1, Heat shock protein HSP 90-alpha; assay type: functional, organism-based
Vero [18] = experiment: Vero cell cytotoxicity, cytotoxicity control for flavivirus capping enzyme inhibitors (AID 588742); assay type: functional; settings: Chlorocebus sabaeus
Beta Lactamase = Beta Lactamase (Pseudomonas aeruginosa, UniProt Q932Y6); experiment: beta-lactamase reporter inhibitor potency, dose response, artefact control for TLR9-MyD88 binding inhibitor project, BLA reporter cells, FRET fluorescence (AID 588341); assay type: cell-based;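 note: cell based assay in CHO-K1 cells stably expressing beta-lactamase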
Genome polyprotein = Genome polyprotein (dengue virus type 2, UniProt P29990); experiment: Dengue-2 NS5 methyltransferase inhibitors, primary screen, biochemical, confirmation dose response (AID 588689); assay type: functional
[19] = HeLa cell cytotoxicity, dose response, cytotoxicity control for MgcRacGAP inhibitor project (AID 624300); assay type: functional
[20] = molecular target: T2, Rac GTPase-activating protein 1 (Homo sapiens, UniProt Q9H0H5); experiment: MgcRacGAP GTPase-activating activity inhibitors, confirmation, biochemical, ADP Hunter fluorescence, primary and confirmatory (AID 624330); assay type: functional
T2 sequence (Q9H0H5 whole entry): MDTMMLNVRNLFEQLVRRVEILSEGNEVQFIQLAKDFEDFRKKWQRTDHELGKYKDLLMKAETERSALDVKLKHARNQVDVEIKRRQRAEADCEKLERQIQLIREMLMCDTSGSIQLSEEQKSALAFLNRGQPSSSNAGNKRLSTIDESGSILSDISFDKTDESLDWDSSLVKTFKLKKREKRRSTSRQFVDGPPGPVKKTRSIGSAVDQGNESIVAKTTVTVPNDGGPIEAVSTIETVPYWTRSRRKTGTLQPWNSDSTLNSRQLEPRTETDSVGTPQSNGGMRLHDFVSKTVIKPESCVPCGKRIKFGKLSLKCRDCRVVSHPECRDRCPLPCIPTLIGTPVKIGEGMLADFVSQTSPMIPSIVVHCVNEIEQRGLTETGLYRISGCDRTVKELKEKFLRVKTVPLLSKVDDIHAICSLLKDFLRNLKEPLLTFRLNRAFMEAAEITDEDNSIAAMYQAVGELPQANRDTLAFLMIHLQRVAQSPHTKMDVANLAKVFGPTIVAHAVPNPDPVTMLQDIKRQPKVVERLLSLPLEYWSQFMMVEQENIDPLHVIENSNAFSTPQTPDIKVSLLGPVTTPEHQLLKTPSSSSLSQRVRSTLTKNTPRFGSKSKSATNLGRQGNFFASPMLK

[21] = THP-1 cell cytotoxicity, dose response, cytotoxicity control for Vif-APOBEC3G degradation inhibitor project, THP-1 cells (AID 1117359); assay type: functional; settings: Human immunodeficiency virus 1, THP-1
[22] = molecular target: Glutathione-S-transferase (Schistosoma japonicum, UniProt Q26513); experiment: biotin-GST/anti-GST TR-FRET signal inhibitors, dose response, artefact control for Vif-APOBEC3G degradation inhibitor project, biochemical (AID 1117362); assay type: functional
[23] = PAX5 activity inhibitors, dose response, selectivity assay for PAX8 inhibitor project, cell-based, plate reader, dry powder samples (AID 743047); assay type: functional;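 note: HEK293 cells carrying a Pax5 driven CD19 promoter luciferase reporter; potency of inhibitors that lower reporter luminescence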
[24] = IGROV1 ovarian cancer cell cytotoxicity, dose response, PAX8 inhibitor project, plate reader, dry powder samples (AID 743043); assay type: functional, cell-based; settings: IGROV-1

Sequence of Paired box protein Pax-8 (Q06710 whole entry): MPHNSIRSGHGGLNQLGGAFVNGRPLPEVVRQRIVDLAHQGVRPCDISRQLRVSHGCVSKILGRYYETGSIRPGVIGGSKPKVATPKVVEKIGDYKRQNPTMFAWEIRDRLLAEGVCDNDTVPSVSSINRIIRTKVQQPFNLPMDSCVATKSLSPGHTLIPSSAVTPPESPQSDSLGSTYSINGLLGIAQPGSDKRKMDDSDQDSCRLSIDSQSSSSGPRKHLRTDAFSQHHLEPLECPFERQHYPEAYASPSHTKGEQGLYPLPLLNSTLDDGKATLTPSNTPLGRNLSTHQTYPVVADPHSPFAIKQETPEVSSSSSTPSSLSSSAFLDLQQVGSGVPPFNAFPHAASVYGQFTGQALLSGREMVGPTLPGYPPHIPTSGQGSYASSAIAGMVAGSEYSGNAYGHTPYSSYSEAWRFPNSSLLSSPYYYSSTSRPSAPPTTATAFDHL
Sequence of Nonstructural protein 1 (Q194T2 whole entry, the tested form may be a part): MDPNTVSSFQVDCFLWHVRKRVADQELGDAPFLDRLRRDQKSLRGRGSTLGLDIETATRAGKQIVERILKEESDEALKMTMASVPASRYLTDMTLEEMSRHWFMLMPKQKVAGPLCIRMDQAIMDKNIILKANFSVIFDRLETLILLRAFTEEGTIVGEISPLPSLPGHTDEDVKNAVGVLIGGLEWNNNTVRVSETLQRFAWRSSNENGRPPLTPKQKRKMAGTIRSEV
Sequence of Genome polyprotein (P29990 2492-3391 limits assumed): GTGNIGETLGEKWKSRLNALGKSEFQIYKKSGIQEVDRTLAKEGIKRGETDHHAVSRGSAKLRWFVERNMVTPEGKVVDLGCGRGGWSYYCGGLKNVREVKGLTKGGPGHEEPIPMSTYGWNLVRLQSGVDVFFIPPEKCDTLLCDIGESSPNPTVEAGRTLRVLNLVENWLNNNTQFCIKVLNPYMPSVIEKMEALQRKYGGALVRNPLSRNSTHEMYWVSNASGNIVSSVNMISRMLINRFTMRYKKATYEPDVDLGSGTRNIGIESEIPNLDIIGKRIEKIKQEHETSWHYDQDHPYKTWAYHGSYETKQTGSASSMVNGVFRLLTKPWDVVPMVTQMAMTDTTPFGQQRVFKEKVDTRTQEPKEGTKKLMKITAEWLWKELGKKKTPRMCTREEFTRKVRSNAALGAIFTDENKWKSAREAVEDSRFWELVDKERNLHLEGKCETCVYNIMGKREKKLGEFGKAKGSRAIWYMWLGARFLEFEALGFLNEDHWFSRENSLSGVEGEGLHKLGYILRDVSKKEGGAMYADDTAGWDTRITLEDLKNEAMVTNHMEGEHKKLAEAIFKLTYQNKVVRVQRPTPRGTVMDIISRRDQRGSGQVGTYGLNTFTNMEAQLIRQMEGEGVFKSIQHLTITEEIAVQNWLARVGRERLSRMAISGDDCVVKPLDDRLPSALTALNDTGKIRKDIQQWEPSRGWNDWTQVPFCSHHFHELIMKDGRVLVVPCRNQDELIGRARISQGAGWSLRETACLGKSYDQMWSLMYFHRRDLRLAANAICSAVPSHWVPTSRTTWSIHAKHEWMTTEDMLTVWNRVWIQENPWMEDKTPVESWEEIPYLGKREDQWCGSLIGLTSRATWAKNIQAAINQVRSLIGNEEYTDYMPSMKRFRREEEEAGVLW
Sequence of 1-phosphatidylinositol 4,5-bisphosphate phosphodiesterase gamma-1 (P19174 whole entry): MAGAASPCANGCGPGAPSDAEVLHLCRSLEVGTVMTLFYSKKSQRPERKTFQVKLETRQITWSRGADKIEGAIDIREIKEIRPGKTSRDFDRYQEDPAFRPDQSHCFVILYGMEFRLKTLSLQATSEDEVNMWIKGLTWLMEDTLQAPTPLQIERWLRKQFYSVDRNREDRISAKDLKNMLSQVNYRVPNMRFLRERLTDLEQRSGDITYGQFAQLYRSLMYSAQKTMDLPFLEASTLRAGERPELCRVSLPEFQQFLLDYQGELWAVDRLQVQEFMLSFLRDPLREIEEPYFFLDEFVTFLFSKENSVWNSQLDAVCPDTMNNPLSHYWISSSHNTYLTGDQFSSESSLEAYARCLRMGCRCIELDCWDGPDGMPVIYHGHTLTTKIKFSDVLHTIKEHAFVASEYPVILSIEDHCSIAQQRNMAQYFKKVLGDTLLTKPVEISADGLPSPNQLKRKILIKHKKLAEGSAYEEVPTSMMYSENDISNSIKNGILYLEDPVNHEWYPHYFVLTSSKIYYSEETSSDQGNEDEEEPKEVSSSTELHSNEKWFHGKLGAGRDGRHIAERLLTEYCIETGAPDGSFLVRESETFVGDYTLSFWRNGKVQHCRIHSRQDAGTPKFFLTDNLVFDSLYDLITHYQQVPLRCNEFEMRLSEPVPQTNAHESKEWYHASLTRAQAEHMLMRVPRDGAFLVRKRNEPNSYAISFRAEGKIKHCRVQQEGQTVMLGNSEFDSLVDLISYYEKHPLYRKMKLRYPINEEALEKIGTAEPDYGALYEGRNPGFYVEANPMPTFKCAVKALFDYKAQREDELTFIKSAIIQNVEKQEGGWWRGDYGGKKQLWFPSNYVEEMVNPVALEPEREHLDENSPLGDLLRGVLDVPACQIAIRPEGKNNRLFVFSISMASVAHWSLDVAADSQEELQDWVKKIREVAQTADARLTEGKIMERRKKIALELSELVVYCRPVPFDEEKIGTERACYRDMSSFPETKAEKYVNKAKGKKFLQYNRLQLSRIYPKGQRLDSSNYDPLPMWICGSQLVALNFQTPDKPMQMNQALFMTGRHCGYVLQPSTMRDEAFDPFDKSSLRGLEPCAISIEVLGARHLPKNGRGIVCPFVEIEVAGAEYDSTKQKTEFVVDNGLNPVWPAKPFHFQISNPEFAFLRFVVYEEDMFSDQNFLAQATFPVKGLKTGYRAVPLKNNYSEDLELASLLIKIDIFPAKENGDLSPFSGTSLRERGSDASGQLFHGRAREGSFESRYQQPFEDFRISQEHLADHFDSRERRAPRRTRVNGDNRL
Sequence of Glucose-6-phosphate 1-dehydrogenase (P11413 whole entry): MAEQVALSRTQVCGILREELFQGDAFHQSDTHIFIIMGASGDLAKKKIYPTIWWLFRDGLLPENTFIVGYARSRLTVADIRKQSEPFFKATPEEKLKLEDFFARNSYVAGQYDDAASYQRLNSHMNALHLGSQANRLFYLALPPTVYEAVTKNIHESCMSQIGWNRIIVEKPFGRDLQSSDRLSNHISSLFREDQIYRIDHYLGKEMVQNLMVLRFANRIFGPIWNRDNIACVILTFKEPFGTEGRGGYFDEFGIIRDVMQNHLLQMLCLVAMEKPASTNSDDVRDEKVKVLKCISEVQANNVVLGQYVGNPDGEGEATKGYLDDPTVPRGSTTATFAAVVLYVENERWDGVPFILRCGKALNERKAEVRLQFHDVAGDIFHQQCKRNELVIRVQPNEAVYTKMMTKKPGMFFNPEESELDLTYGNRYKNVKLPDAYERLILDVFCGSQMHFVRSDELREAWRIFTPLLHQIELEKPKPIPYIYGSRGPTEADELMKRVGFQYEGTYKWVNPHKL
Sequence of NACHT, LRR and PYD domains-containing protein 1 (Q9C000 1-1212 limits assumed): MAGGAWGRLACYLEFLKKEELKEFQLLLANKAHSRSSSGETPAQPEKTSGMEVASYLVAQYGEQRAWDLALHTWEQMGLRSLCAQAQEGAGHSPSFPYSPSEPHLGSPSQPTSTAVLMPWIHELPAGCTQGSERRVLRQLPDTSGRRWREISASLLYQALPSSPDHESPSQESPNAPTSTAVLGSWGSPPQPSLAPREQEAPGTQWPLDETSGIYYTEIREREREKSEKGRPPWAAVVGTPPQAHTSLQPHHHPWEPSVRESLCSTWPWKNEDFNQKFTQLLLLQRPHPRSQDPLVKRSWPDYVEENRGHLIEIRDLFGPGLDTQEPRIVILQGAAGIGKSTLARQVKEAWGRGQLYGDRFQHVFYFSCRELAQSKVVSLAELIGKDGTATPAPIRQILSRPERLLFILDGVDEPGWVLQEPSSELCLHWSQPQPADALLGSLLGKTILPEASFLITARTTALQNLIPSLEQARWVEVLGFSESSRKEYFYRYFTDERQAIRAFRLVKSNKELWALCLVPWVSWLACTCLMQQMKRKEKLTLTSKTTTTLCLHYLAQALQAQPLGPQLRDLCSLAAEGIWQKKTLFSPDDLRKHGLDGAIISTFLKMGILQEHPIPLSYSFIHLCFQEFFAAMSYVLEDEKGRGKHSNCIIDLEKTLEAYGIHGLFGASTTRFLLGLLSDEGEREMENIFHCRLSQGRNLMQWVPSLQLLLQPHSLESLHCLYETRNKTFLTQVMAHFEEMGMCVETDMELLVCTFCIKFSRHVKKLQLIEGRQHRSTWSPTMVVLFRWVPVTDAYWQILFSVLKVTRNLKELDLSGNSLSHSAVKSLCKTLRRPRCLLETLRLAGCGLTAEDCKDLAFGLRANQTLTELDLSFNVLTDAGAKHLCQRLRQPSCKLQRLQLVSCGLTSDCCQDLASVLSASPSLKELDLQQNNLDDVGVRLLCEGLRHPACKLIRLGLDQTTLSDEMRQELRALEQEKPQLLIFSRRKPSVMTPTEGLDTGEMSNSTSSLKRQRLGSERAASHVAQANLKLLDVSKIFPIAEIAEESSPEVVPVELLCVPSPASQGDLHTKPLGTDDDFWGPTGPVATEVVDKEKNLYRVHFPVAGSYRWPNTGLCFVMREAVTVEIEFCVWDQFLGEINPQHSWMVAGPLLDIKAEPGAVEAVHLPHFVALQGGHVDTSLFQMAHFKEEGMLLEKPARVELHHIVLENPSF
Sequence of NACHT, LRR and PYD domains-containing protein 1 (Q9C000 1213-1473 limits assumed): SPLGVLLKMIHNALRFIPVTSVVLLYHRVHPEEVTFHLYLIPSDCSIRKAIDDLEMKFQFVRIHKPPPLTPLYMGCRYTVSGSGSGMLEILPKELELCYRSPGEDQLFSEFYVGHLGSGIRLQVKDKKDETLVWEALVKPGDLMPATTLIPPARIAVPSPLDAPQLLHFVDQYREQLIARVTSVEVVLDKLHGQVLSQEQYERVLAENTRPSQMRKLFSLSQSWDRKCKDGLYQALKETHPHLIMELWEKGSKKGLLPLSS

SMILES: N=c1sccn1CC(=O)Nc1ccc2c(c1)CCC2
- CC50 [1]: > 40 µM (active)

SMILES: CC(C)CCN(CCC(C)C)CC(O)Cn1c2ccccc2c(=O)c2ccccc21 (stereo not drawn)
- AC50 (cells): > 52 µM (inactive)

SMILES: CC1(C)CC(=O)c2sc(NC(=O)CCS(=O)(=O)c3ccccc3)nc2C1
- AC50 (Paired box protein Pax-8): 3.16 µM (active)
- AC50 [2]: 69.9 µM (active)
- AC50 [3]: 22.9 µM (active)
- AC50 [4]: 86.7 µM (active)
- AC50 [5]: 11.9 µM (active)

SMILES: CC(C)N1C(=O)C2(OCCCO2)c2cc(Br)ccc21
- AC50 (HEK293): 13 µM (active)
- AC50 [6]: 13 µM (active)

SMILES: Cc1sc(-c2ccncc2)nc1OC(=O)c1ccccc1
- IC50 (Saccharomyces cerevisiae): 56.9 µM (active)
- IC50 [7]: 23.1 µM (active)
- IC50 [8]: > 100 µM (active)

SMILES: O=S(=O)(c1ccccc1)c1cnn(-c2ccccc2)c1-c1ccc(Cl)cc1
- IC50 [9]: > 122 µM (inactive)
- IC50 [10]: > 122 µM (inactive)

SMILES: Cc1ccc(C(=O)Nc2ccc(NC(=O)c3ccc(C)o3)cc2)o1
- EC50 (Kallikrein-7): 12.7 µM (inactive)
- EC50 [11]: > 7.72 µM (active)

SMILES: Cc1cc(NC(=O)c2coc(=O)c(Br)c2)ccc1C(C)C
- IC50 [12]: 0.685 µM (active)
- CC50 (Vero [13]): > 25 µM (active)
- IC50 [14]: 18.8 µM (inactive)
- IC50 [15]: 8.9 µM (active)

SMILES: CCN(CC)c1ccc(C(=C2C=CC(=[N+](CC)CC)C=C2)c2ccccc2)cc1
- IC50 [16]: > 80 µM (inactive)
- IC50 (Nonstructural protein 1): 10.4 µM (active)
- IC50 (CHO): 0.181 µM (active)
- AC50 [17]: 0.754 µM (active)
- CC50 (Vero [18]): 0.27 µM (active)
- IC50 (Beta Lactamase): 4.75 µM (active)
- IC50 (Genome polyprotein): 24.9 µM (active)
- CC50 [19]: 0.823 µM (active)
- IC50 [20]: 9.8 µM (active)
- CC50 [21]: 0.1 µM (active)
- IC50 [22]: 25.3 µM (active)

SMILES: N#C[C@@H]1[C@@H](c2ccc(-c3cccc(F)c3)cc2)[C@H](CO)N1C(=O)NC1CCCC1
- AC50 (Paired box protein Pax-8): 22.2 µM (active)
- AC50 [23]: 55.5 µM (active)
- AC50 [3]: 65.3 µM (active)
- AC50 [4]: > 70 µM (inactive)
- AC50 [5]: 39.6 µM (active)

SMILES: O=C(C[C@@H]1CC[C@@H]2[C@H](COC[C@@H](O)CN2C(=O)Nc2ccc(C(F)(F)F)cc2)O1)NC1Cc2ccccc2C1
- AC50 (Paired box protein Pax-8): 5.62 µM (active)
- AC50 [24]: 56.8 µM (active)
